The assay has as its target Maltase-glucoamylase (Homo sapiens, UniProt O43451). The experiment in a line: Inhibition of alpha-glucosidase (unknown origin).
Maltase-glucoamylase, sequence (O43451 whole entry): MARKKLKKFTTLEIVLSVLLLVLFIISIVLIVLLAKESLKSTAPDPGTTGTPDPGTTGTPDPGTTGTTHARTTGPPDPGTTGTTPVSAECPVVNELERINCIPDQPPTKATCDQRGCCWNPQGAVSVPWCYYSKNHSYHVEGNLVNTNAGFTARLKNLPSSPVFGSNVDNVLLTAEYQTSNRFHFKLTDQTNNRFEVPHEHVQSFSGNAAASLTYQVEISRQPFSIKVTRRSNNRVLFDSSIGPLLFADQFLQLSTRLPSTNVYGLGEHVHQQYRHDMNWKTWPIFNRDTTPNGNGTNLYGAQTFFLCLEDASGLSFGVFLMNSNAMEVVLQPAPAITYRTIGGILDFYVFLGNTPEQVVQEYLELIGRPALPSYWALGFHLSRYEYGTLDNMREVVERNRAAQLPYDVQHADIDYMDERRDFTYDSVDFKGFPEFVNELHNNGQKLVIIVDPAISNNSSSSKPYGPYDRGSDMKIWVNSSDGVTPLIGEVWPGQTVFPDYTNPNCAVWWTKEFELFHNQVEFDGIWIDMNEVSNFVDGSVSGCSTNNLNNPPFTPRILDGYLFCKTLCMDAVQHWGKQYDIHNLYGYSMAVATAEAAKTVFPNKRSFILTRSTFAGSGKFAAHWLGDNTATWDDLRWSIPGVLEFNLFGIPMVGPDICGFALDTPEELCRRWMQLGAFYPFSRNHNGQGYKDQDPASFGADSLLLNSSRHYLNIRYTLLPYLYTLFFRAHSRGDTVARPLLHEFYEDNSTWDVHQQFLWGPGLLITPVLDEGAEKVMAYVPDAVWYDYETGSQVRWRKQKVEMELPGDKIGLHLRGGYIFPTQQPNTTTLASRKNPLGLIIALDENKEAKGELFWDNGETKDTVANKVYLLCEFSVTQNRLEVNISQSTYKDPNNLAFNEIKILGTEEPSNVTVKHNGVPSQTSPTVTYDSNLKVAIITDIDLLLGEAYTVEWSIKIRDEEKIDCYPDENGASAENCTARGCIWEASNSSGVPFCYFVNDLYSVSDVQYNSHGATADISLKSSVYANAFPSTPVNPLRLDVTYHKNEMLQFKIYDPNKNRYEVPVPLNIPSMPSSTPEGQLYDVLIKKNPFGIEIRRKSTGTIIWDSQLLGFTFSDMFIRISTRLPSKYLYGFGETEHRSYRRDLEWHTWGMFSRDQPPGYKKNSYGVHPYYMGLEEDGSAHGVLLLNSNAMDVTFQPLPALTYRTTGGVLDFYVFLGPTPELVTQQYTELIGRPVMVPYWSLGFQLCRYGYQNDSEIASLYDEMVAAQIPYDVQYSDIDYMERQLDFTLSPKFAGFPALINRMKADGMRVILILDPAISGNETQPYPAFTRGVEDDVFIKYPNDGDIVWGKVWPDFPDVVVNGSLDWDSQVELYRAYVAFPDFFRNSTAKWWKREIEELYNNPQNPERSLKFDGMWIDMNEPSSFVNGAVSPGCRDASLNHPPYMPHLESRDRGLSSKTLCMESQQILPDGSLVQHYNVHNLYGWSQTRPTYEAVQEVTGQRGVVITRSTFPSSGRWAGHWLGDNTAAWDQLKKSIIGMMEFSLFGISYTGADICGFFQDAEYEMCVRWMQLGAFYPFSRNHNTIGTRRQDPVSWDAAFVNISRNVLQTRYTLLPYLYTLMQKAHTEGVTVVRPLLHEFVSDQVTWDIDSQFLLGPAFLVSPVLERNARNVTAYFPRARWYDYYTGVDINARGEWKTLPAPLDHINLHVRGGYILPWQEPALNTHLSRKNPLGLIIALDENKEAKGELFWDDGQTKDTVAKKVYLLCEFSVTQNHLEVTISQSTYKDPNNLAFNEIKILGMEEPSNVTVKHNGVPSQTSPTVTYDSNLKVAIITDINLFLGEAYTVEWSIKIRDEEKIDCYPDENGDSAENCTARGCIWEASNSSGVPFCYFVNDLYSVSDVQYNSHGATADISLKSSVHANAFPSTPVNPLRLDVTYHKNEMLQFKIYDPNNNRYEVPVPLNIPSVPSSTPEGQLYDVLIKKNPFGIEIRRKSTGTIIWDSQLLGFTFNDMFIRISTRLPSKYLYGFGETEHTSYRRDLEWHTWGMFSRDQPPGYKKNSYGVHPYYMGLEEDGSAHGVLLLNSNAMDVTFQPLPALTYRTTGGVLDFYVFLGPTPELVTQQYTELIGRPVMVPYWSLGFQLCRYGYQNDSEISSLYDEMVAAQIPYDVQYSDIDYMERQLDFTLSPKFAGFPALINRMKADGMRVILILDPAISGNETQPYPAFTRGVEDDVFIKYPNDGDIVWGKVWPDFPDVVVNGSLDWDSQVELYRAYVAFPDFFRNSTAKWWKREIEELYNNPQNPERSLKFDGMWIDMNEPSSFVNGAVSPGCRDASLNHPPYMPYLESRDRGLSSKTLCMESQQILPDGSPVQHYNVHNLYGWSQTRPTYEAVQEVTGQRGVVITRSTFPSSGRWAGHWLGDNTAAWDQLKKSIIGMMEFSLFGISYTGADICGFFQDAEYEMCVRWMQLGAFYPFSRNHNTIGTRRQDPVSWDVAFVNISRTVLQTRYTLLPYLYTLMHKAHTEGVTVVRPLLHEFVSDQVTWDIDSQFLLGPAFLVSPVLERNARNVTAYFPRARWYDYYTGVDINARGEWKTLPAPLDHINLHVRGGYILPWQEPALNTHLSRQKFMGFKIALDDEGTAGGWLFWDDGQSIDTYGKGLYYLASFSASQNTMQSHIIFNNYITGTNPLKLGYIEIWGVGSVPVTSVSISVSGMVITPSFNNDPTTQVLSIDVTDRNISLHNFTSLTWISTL
The compound `O=C(Nc1sc2c(c1C(=O)NCc1ccccc1)CCCC2)c1cccnc1` had an IC50 of 45.3 µM.
Consider `O=C(Nc1sc2c(c1C(=O)NCc1cccnc1)CCCC2)c1cccnc1`, for which the IC50 worked out at 507 µM.
`O=C(Nc1sc2c(c1C(=O)NCc1ccccc1)CCC2)c1cccnc1` displayed an IC50 of 82.5 µM.
Regarding `O=C(Nc1sc2c(c1C(=O)NCc1ccccc1)CCCCC2)c1cccnc1`, the midpoint of inhibition, the IC50, lay at 63.4 µM.
For `COc1cc(CNC(=O)c2c(NC(=O)c3cccnc3)sc3c2CCCC3)ccc1O`, the IC50 came to 9.9 µM.
`COC(=O)c1ccc(CNC(=O)c2c(NC(=O)c3cccnc3)sc3c2CCCC3)cc1` returned a 50% inhibitory concentration (IC50) of 87.8 µM.
In the case of `COc1cc(CNC(=O)c2c(NC(=O)c3cccnc3)sc3c2CCCCC3)ccc1O` it was 35.4 µM; in that of `COc1ccc(CNC(=O)c2c(NC(=O)c3cccnc3)sc3c2CCCC3)cc1`, 30.2 µM; in that of `COc1ccc(CNC(=O)c2c(NC(=O)c3cccnc3)sc3c2CCC3)cc1`, 87.6 µM.
In the case of `COc1cc(CNC(=O)c2c(NC(=O)c3cccnc3)sc3c2CCC3)ccc1O` it was 93.6 µM; in that of `O=C(Nc1sc2c(c1C(=O)NCc1ccccn1)CCCC2)c1cccnc1`, 64.1 µM.

Values taken from BindingDB's records for PubMed 36395995 (University of Jinan, 2023).
